The results in this text go back to ChEMBL document CHEMBL3991601, “The target landscape of clinical kinase drugs” (Science, 2017).

Active and inactive are the calls of the source. Some results are limits rather than exact numbers.

For experiment [1], the target named is T1, Mitogen-activated protein kinase kinase kinase 6 (Homo sapiens, UniProt O95382).
T1 sequence (O95382 whole entry): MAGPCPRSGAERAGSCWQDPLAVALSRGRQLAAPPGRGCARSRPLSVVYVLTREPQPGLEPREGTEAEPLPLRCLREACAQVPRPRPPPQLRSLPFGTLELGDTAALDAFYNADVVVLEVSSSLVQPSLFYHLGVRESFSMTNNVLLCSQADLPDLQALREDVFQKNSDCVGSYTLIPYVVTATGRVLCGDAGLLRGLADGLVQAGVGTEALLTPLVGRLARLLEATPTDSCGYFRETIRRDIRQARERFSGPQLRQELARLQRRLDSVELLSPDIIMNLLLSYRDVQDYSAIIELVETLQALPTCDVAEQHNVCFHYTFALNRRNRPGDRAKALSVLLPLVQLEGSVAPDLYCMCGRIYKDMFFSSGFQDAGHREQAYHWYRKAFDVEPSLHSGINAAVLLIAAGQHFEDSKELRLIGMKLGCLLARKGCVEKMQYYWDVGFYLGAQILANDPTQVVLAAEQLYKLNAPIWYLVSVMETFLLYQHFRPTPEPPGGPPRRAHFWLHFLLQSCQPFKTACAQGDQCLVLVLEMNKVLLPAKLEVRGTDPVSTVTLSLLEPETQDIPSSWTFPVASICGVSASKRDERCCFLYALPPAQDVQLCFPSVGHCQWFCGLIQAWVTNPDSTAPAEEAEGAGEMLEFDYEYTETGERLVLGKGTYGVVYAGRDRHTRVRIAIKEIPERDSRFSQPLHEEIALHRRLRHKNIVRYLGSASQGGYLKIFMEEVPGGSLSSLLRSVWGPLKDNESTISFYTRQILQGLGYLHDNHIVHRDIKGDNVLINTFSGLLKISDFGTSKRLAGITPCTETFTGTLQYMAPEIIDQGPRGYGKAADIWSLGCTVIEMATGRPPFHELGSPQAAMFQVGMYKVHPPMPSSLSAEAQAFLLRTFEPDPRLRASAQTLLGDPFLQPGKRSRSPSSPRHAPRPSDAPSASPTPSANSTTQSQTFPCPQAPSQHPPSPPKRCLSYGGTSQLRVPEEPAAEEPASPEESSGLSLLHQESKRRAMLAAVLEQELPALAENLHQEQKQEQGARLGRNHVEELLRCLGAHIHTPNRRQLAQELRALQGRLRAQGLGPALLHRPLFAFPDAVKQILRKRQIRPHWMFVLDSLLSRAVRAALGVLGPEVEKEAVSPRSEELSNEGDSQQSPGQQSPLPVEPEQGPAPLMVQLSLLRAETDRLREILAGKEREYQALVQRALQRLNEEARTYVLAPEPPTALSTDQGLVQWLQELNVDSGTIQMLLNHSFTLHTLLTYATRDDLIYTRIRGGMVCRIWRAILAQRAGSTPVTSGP

A further experiment deals with T2, Rab-like protein 3 (Homo sapiens, UniProt Q5HYI8).
T2 sequence (Q5HYI8 whole entry): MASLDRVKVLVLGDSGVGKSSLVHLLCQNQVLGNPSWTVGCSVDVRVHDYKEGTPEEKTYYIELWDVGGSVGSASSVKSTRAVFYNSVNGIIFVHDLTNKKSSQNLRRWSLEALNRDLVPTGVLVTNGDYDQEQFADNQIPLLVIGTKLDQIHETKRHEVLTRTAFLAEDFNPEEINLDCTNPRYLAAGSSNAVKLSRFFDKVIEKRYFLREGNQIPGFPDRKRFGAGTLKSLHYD

A further experiment concerns the target Myosin-14 (Homo sapiens, UniProt Q7Z406).
The target of experiment [2] is T3, Succinate--CoA ligase [ADP-forming] subunit beta, mitochondrial (Homo sapiens, UniProt Q9P2R7).
T3 sequence (Q9P2R7 whole entry): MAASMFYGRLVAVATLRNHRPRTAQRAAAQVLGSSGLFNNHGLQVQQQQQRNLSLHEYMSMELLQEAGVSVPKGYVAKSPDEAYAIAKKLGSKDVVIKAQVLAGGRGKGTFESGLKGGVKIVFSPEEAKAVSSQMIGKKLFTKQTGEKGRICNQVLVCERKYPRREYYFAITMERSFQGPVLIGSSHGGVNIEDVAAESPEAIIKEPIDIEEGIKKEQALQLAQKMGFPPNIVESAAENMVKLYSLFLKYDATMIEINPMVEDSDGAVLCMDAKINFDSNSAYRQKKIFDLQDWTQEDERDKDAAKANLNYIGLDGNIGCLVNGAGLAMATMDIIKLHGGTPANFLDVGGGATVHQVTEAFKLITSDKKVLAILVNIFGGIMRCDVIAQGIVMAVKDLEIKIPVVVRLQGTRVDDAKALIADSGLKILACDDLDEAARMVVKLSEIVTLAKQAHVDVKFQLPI

The target of experiment [3] is Serine/threonine-protein kinase pim-1 (Homo sapiens, UniProt P11309).
Serine/threonine-protein kinase pim-1, sequence (P11309 whole entry): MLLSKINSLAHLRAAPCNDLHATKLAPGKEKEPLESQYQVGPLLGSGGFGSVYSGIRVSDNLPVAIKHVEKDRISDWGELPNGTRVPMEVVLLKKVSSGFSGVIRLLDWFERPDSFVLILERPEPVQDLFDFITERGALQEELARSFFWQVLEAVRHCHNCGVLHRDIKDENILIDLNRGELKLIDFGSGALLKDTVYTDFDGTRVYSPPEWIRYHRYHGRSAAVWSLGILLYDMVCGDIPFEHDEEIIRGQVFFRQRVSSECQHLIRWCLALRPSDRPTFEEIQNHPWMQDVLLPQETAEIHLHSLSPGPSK
The target in experiment [4] is T4, Phosphatidylinositol 5-phosphate 4-kinase type-2 gamma (Homo sapiens, UniProt Q8TBX8).
T4 sequence (Q8TBX8 whole entry): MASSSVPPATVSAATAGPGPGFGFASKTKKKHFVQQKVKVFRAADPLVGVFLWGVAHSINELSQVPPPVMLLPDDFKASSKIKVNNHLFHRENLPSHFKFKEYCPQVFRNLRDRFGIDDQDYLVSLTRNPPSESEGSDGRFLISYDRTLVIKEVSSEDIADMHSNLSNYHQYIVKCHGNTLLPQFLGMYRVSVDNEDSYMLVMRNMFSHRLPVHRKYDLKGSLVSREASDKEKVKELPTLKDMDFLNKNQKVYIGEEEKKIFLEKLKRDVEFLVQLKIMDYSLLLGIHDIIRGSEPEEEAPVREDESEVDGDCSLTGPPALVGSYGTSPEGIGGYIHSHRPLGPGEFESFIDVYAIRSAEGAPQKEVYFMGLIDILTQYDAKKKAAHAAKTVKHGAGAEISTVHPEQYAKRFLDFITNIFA

Another experiment has as its target T5, dCTP pyrophosphatase 1 (Homo sapiens, UniProt Q9H773).
T5 sequence (Q9H773 whole entry): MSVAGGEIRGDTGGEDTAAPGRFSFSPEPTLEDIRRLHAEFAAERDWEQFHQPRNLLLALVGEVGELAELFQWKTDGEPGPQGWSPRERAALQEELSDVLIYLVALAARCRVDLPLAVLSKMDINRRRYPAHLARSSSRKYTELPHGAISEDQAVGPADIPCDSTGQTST
Note: in the data inactive means no Kd found up to 30 µM.

Myosin-14, sequence (Q7Z406 whole entry): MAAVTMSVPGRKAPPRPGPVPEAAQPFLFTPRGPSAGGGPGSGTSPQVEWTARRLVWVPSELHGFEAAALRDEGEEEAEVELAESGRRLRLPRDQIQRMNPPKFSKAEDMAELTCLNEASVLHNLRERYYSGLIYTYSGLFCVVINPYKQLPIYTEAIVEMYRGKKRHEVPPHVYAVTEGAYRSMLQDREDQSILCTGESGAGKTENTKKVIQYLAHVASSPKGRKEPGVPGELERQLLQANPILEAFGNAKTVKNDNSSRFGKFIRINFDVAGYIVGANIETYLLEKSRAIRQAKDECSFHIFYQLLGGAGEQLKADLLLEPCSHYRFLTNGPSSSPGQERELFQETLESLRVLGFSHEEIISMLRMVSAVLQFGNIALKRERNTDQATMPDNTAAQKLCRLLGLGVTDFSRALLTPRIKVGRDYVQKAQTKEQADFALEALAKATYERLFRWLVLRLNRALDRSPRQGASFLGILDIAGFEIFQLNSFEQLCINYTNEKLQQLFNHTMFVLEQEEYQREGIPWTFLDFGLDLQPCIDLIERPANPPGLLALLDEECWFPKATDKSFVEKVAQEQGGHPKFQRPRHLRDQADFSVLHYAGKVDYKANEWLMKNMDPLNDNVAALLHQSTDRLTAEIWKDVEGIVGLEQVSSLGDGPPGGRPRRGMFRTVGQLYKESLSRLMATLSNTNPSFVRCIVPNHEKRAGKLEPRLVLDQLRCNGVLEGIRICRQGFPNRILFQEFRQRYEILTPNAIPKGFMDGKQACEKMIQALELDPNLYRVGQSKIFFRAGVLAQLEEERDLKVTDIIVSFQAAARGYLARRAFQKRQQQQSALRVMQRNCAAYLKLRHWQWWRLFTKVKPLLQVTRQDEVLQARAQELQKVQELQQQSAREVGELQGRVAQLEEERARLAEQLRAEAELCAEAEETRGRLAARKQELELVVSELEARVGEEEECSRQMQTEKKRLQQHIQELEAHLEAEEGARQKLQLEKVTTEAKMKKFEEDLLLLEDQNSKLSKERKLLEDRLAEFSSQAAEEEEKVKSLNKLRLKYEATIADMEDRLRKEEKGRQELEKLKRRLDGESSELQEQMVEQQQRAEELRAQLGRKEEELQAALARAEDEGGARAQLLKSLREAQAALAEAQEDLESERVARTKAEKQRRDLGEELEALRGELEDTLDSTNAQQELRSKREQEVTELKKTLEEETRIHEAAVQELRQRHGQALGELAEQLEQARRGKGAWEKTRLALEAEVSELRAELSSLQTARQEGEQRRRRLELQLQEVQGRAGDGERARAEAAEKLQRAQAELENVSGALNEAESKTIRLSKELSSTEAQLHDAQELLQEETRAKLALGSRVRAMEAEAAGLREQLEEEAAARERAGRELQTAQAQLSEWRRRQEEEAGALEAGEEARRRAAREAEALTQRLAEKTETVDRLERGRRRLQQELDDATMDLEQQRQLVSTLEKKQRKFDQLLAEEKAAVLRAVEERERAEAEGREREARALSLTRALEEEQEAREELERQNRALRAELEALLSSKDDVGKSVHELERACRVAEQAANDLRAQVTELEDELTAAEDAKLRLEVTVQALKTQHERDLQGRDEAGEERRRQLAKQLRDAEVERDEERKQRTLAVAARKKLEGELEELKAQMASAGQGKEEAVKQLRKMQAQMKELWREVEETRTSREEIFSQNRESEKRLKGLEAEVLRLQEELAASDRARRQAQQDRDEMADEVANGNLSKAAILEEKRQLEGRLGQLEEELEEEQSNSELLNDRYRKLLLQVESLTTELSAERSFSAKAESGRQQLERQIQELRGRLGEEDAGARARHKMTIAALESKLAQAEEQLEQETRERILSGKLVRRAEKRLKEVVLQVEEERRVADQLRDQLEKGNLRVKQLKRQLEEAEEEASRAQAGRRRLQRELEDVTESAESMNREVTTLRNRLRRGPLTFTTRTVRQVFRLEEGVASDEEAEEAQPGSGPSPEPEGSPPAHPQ

Take `COc1ccc2c(OCc3nnc4ccc(-c5ccccc5)nn34)ccnc2c1` [AMG-208]: the Kd (in experiment [1]; on Rab-like protein 3; on Myosin-14; in experiment [2]; in experiment [3]; in experiment [4]) was > 30 µM (inactive) throughout. For the same molecule, on dCTP pyrophosphatase 1, the Kd is > 30 µM (inactive).

Consider `COc1cc2ncnc(Nc3ccc(F)c(Cl)c3)c2cc1NC(=O)/C=C/CN1CCCCC1` [DACOMITINIB ANHYDROUS], for which the Kd (in experiment [1]; at Rab-like protein 3; at Myosin-14; in experiment [2]; in experiment [3]; in experiment [4]) was > 30 µM (inactive) throughout. The Kd on dCTP pyrophosphatase 1 is > 30 µM (inactive).

Take `CC[C@@](C)(Nc1ccnc(-c2c[nH]c3ncccc23)n1)C(=O)NCC(F)(F)F` [DECERNOTINIB]: the Kd (in experiment [1]; on Rab-like protein 3; on Myosin-14; in experiment [2]; in experiment [3]; in experiment [4]) was > 30 µM (inactive) each time. For the same molecule, the Kd at dCTP pyrophosphatase 1 was > 30 µM (inactive).

Regarding `COc1cc2nccc(Oc3ccc(NC(=O)C4(C(=O)Nc5ccc(F)cc5)CC4)cc3)c2cc1OC` [CABOZANTINIB], the Kd in experiment [1] is > 30 µM (inactive); at Rab-like protein 3, > 30 µM (inactive); on Myosin-14, > 30 µM (inactive); in experiment [2], > 30 µM (inactive); in experiment [3], > 30 µM (inactive); in experiment [4], 2.9 µM (active). For the same molecule, the Kd at dCTP pyrophosphatase 1 was > 30 µM (inactive).
